Data taken from ChEMBL document CHEMBL1132782.

Molecular target: Prothrombin (Homo sapiens) (UniProt P00734)
Test: Inhibitory activity against human thrombin

Row | K ass | SMILES
1 | 9.72e+06 l M-1 | COc1cc(Cn2c(-c3ccc(OCCN4CCCC4)cc3)nc3cc(O)ccc32)ccc1CN1CCCC1
2 | 974000 l M-1 | c1ccc2c(Cc3ccc(OCCN4CCCC4)cc3)c(-c3ccc(OCCN4CCCC4)cc3)oc2c1
3 | 4.49e+06 l M-1 | COc1cc(Cn2c(-c3ccc(OCCN4CCCC4)cc3)nc3cc(CN)ccc32)ccc1CN1CCCC1
4 | 3.91e+06 l M-1 | COc1cc(Cc2c(-c3ccc(OCCCC(=O)O)cc3)sc3ccccc23)ccc1CN1CCCC1
5 | 2.47e+07 l M-1 | COC(=O)CCCOc1ccc(-c2cc3ccccc3n2Cc2ccc(CN3CCCC3)c(OC)c2)cc1
6 | 1.2e+07 l M-1 | COc1cc(Cn2c(-c3ccc(OCCN4CCCC4)cc3)nc3cc(O)ccc32)ccc1Cn1cccn1
7 | 1.19e+07 l M-1 | COc1cc(Cn2c(-c3ccc(OCCN4CCCC4)cc3)nc3ccccc32)ccc1CN1CCCC1
8 | 1.26e+08 l M-1 | COc1cc(Cc2c(-c3ccc(OCCN4CCCC4)cc3)sc3ccccc23)ccc1CN1CCCC1
9 | 8.15e+08 l M-1 | COc1cc(Cc2c(-c3ccc(OCCN4CCCC4)cc3)sc3cc(O)ccc23)ccc1CN1CCCC1
10 | 332000 l M-1 | c1ccc2c(c1)nc(-c1ccc(OCCN3CCCC3)cc1)n2Cc1ccc(OCCN2CCCC2)cc1
11 | 1.97e+08 l M-1 | COc1cc(Cn2c(-c3ccc(OCCN4CCCC4)cc3)cc3ccccc32)ccc1CN1CCCC1
12 | 6.41e+06 l M-1 | COc1cc(Cn2c(-c3ccc(OCCCC(=O)O)cc3)cc3ccccc32)ccc1CN1CCCC1
13 | 7.68e+06 l M-1 | COC(=O)CCCOc1ccc(-c2sc3ccccc3c2Cc2ccc(CN3CCCC3)c(OC)c2)cc1
14 | 1.46e+06 l M-1 | COc1cc(Cn2c(-c3ccc(OCCn4cccn4)cc3)nc3ccccc32)ccc1CN1CCCC1
15 | 9.6e+06 l M-1 | COc1cc(Cn2c(-c3ccc(OCCN4CCCC4)cc3)nc3cc(O)ccc32)ccc1Cn1ccnc1
16 | 410000 l M-1 | O=C(c1ccc(OCCN2CCCC2)cc1)c1c(-c2ccc(OCCN3CCCC3)cc2)sc2ccccc12
17 | 1.5e+07 l M-1 | COc1cc(Cn2c(-c3ccc(OCCN4CCCC4=O)cc3)nc3ccccc32)ccc1CN1CCCC1
18 | 1.65e+07 l M-1 | COc1cc(Cn2c(-c3ccc(OCCN4CCCC4)cc3)nc3cc(O)ccc32)ccc1NCc1ccccc1
19 | 1.02e+07 l M-1 | COc1cc(Cn2c(-c3ccc(OCCN4CCCC4)cc3)nc3cc(O)ccc32)ccc1Cn1ccnn1
20 | 5.97e+07 l M-1 | COc1cc(Cn2c(-c3ccc(OCCN4CCCC4)cc3)cc3ccncc32)ccc1C(=O)N1CCCC1
21 | 1.93e+06 l M-1 | COc1cc(Cn2c(-c3ccc(OCCN4CCCC4)cc3)nc3cc(CO)ccc32)ccc1CN1CCCC1
22 | 6.27e+06 l M-1 | c1ccc2c(c1)cc(-c1ccc(OCCN3CCCC3)cc1)n2Cc1ccc(OCCN2CCCC2)cc1
23 | 1.49e+07 l M-1 | COc1cc(Cc2c(-c3ccc(OCCCCO)cc3)sc3ccccc23)ccc1CN1CCCC1
24 | 3.37e+07 l M-1 | COc1cc(Cn2c(-c3ccc(OCCCCO)cc3)cc3ccccc32)ccc1CN1CCCC1
25 | 8.37e+07 l M-1 | COc1cc(Cn2c(-c3ccc(OCCN4CCCC4)cc3)cc3cnccc32)ccc1C(=O)N1CCCC1
26 | 42000 l M-1 | c1ccc2c(Cc3ccc(OCCN4CCCC4)cc3)c(-c3ccc(OCCN4CCCC4)cc3)[nH]c2c1
27 | 7.39e+07 l M-1 | COc1cc(Cn2c(-c3ccc(OCCN4CCCC4)cc3)cc3cnccc32)ccc1CN1CCCC1
